Converted amounts (≈) assume the structure as drawn.

Type in all cases: cell-based
Assay [1] has as its system Pseudomonas aeruginosa EP-172. Put plainly: Antibacterial Activity (MIC) against Pseudomonas aeruginosa EP-172. The conditions noted are these: EP172.
Assay [2] concerns Serratia marcescens ES-75. Description: Antibacterial Activity (MIC) against Serratia marcescens ES-75. The conditions noted are these: ES75.
Another assay has as its system Escherichia coli NIHJ. Description: Antibacterial Activity (MIC) against Escherichia coli NIHJ.
For assay [3], the system named is Klebsiella pneumoniae EK-6. Description: Antibacterial Activity (MIC) against Klebsiella pneumoniae EK-6. The note with it: EK6.
Assay [4] relates to Staphylococcus aureus 209-P. Description: Antibacterial Activity (MIC) against Staphylococcus aureus 209-P.
The next assay concerns Proteus morganii EP-14. Put plainly: Antibacterial Activity (MIC) against Proteus morganii EP-14. The conditions noted are these: Morganella morganii, EP14.

As usually defined, the MIC is the least concentration at which growth counts as inhibited. Low readings indicate inhibition by little substance, high ones a need for much substance. `CCOC(=O)Oc1cc2occ(C(=O)N[C@@H](C(=O)N[C@@H]3C(=O)N4C(C(=O)O)=C(CSc5nnnn5CC(=O)O)CS[C@H]34)c3ccc(O)cc3)c(=O)c2cc1OC(=O)OCC` [Preparatory Example 2 (A), 7β-[D-2-{6,7-bis(ethoxycarbonyloxy)chromone-3-carboxamido}-2-(4-hydroxyphenyl)acetamido]-3-[(1-carboxymethyl-5-tetrazolyl)thiomethyl]-3-cephem-4-carboxylic acid]: the MIC in assay [1] is 0.8 µg/mL (≈ 0.92 µM); in assay [2], at least 0.05 µg/mL; against Escherichia coli NIHJ, 0.4 µg/mL (≈ 0.46 µM); in assay [3] it was at least 0.05 µg/mL; in assay [4], 6.25 µg/mL (≈ 7.19 µM); in the assay with Proteus morganii EP-14 it was 1.56 µg/mL (≈ 1.79 µM).
With `O=C(O)Cn1nnnc1SCC1=C(C(=O)O)N2C(=O)[C@@H](NC(=O)[C@H](NC(=O)c3coc4cc(O)c(O)cc4c3=O)c3ccc(O)cc3)[C@H]2SC1` [Preparatory Example 2 (B), 7β-[D-2-(6,7-Dihydroxychromone-3-carboxyamido)-2-(4-hydroxyphenyl)acetamido]-3-[(1-carboxymethyl-5-tetrazolyl)thiomethyl]-cephem-4-carboxylic acid], the MIC in assay [1] is 0.8 µg/mL (≈ 1.1 µM); in assay [2] it was at least 0.1 µg/mL; in the assay on Escherichia coli NIHJ, 0.4 µg/mL (≈ 0.551 µM); in assay [3], at least 0.1 µg/mL; in assay [4], 3.13 µg/mL (≈ 4.31 µM); against Proteus morganii EP-14, 12.5 µg/mL (≈ 17.2 µM).

Values taken from patent publication US4331606A, “N-(Substituted chromone-3-carbonyl)-phenylglycine derivatives” (Eisai Co., Ltd., priority 1980, dated 1982).
